The text below walks through data of patent publication US12648984B2, “Long term treatment of psoriasis” (priority 2023, dated 2026).

This assay concerns extensive plaque psoriasis on the trunk. The experiment in a line: one patient case: once-daily topical application on the whole trunk. It is filed as in vivo, human. The settings on record: same patient; for effect of earlier treatments on redness and psoriasis: regular treatment before the composition (UVA, then hydrocortisone, then Acitretine); for status upon cessation of earlier treatments: upon cessation of earlier treatment. From the text: The composition has been evaluated in one patient case. A […], presenting extensive plaque psoriasis on the trunk for several years (illustration 1), was regularly treated with UVA, then hydrocortisone, then Acitretine.
They were provided with the composition according to the invention to apply once daily on the whole trunk. No concomitant treatment for psoriasis or else was used.
After 6 months, treatment with the composition was discontinued. Several months after discontinuation, the patient was questioned regarding the status of the disease.

In the case of `COc1cc(C)c(/C=C/C(C)=C/C=C/C(C)=C/C(=O)O)c(C)c1C` [Acitretine], the “effect of earlier treatments on redness and psoriasis” value was “reduced redness, but never the psoriasis itself”; the “status upon cessation of earlier treatments” value was “redness came back”.

With `C[C@]12CCC(=O)C=C1CC[C@@H]1[C@@H]2[C@@H](O)C[C@@]2(C)[C@H]1CC[C@]2(O)C(=O)CO` [hydrocortisone], the “effect of earlier treatments on redness and psoriasis” value is “reduced redness, but never the psoriasis itself”; the “status upon cessation of earlier treatments” value was “redness came back”.
